Biological target: T1, porcine pancreatic α-amylase (PPA) (Sus scrofa, UniProt P00690)
T1 construct: gene AMY2; native pancreatic enzyme
T1 sequence (P00690 16-511): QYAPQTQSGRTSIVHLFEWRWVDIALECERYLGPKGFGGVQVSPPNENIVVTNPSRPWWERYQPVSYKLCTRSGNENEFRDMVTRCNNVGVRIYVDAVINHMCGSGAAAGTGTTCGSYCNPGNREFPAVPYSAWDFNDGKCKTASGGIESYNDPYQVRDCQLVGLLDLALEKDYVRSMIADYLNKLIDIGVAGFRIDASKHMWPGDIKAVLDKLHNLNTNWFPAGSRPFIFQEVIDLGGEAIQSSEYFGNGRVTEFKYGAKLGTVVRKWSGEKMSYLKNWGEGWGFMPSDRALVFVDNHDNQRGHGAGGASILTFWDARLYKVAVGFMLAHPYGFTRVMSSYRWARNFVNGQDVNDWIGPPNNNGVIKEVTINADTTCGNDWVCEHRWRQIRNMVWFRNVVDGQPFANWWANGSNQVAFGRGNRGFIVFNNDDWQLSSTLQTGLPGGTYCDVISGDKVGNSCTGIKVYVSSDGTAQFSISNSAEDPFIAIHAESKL
Assay: starch-iodine colorimetric assay, […] nm
Assay type: biochemical
Details: read-out: α-Amylase IC50 (mg/mL) (converted)

CCCCCCCCCCCCCCCC(=O)O [palmitic acid]
IC50: 5.93 mM

— paper PMC7151626, “Antioxidant and α-amylase Inhibitory Activities and Phytocompounds of Clausena indica Fruits” (Medicines, 2020)
